34 molecules from article PMC8765781, “A platform of assays for the discovery of anti-Zika small-molecules with activity in a 3D-bioprinted outer-blood-retina model” (PLoS ONE, 2022) can be followed below.

Like-named read-outs stand apart in the source and are kept apart here.

The assay relates to wild-type ZIKV (Ugandan MR766 strain) in Vero cells. Put plainly: ZIKV cytopathic effect (CPE) inhibition qHTS assay, CellTiter-Glo readout. The assay is classed as cell-based, Zika virus. To be noted: for AC50 / Emax: Zika virus, Vero; for Emax: read-out: Max response.
Setting [1] is: read-out: Log AC50 (M) (converted).

Turning to `CCOCCn1nc(CC)c2nc(N3CCC(C(=O)O)CC3)nc(Nc3cc(C)ccn3)c21` [NCGC00386619-01], the Efficacy is reported as -25.995 and the activity was half-maximal at 4.11e-05 M (AC50). Besides, the AC50 – broadly, the midpoint of the concentration-response curve, whichever way the signal moves – under setting [1] was 4.11e-05 M.
The molecule `C=Cc1cc2oc(-c3ccc(O)c(F)c3)nc2cc1O` [NCGC00485115-01] yielded an Efficacy of -24.649 and a concentration at half-maximal activity (AC50) of 6.51e-05 M. Besides, the AC50 under setting [1] is 6.51e-05 M.
`COc1c(Cl)cc2c([nH]c3cnccc32)c1NC(=O)c1cccnc1C` [NCGC00263021-04]: the “CC-v2 (curve class classification of the dose response curve)” value (“CC-v2” below) is -2.2, the Efficacy is on record as -34.501 and the AC50 came to 6.51e-05 M. Moreover, under setting [1], the AC50 is 6.51e-05 M.
On to `C=C1C(=O)O[C@@H]2C[C@H](C)[C@@H]3CC(=O)C(C)=C3C[C@H]12` [NCGC00169080-02], for which the Curve class is recorded as -3, the Efficacy is on record as -111.978, the AC50 was found to be 6.51e-05 M and the Emax was -89.7%. Where the note is “read-out: Log AC50 (converted)”, the AC50 is 6.51e-05 M.
On to `COc1c2c(c(C)c3c1C(=O)OC3)OC1(C)CC(O)C34OC(OC)(CCC3(C)C1C2)OC4(C)CO` (stereo not shown) [NCGC00380890-01], for which the “CC-v2” value was -3, the Efficacy is given as -69.031 and the AC50 worked out at 1.42e-05 M. Further, the AC50 under setting [1] was 1.42e-05 M.
The molecule `C[C@H]1O[C@@H](O[C@H]2[C@@H](O)C[C@H](O[C@H]3[C@@H](O)C[C@H](O[C@H]4CC[C@@]5(C)[C@H](CC[C@@H]6[C@@H]5C[C@@H](O)[C@]5(C)[C@@H](C7=CC(=O)OC7)CC[C@]65O)C4)O[C@@H]3C)O[C@@H]2C)C[C@H](O)[C@@H]1O` [NCGC00090797-15] had an Efficacy of -19.155 and an AC50 of 8.2e-06 M. Besides, the AC50 under setting [1] was 8.2e-06 M.
In turn, `C/C=C(\C)C(=O)O[C@H]1C=CC(=O)O[C@H]1/C=C/[C@@H](O)[C@H](C)O` [NCGC00380589-01] had an Efficacy of -37.007 and an AC50 of 6.51e-05 M. The half-maximal activity concentration (AC50) under setting [1] was 6.51e-05 M.
With `COc1cc2c(cc1O)C(c1ccc(O)cc1)C(C)C(C)C2` (stereo not shown) [NCGC00380925-01], the “CC-v2” value was -3, the Efficacy is -32.851 and the AC50 stood at 6.51e-05 M. Also, the AC50 under setting [1] is 6.51e-05 M.
`CN(C)CC1CCn2c(c(C3=C(c4cn(C)c5ccccc45)C(=O)NC3=O)c3ccccc32)C1` (stereo not shown) [NCGC00163696-04] registered an Efficacy of -28.697 and an AC50 of 3.26e-05 M. Under setting [1], the AC50 is 3.26e-05 M.
Regarding `C/C=C(/C)C(=O)O[C@H]1C=C(CO)C(=O)[C@H](OC(=O)/C(C)=C/CO)[C@H]1C(C)C` [NCGC00169078-03], the “CC-v2” value is recorded as -3, the Efficacy was -32.45 and half-maximal activity (AC50) was put at 5.08e-05 M. In addition, the AC50 under setting [1] was 5.08e-05 M.
`CC(C)C[C@H](CO)Nc1nc(S[C@@H](C)c2ccccc2)nc2nc(N)sc12` [NCGC00386735-01] displayed an Efficacy of -23.549 and a half-maximal activity concentration (AC50) of 5.17e-05 M. Moreover, the AC50 under setting [1] was 5.17e-05 M.
With `CC(C)(O)C(O)C(=O)OCc1ccc(O[C@@H]2O[C@H](CO)[C@@H](O)[C@H](O)[C@H]2O)cc1` (stereo partly shown) [NCGC00381128-01], the “CC-v2” value was -3, the Efficacy is recorded as -65.299 and the activity was half-maximal at 1e-05 M (AC50). Moreover, under setting [1], the half-maximal activity concentration (AC50) was 1e-05 M.
As for `C=C1C(=O)CC2OC2(C)CC2OC(=O)C(=C)C2C(O)C1OC(=O)/C(C)=C\C` (stereo not shown) [NCGC00380095-01], the “CC-v2” value is reported as -3, the Efficacy was -52.521 and the AC50 worked out at 4.53e-05 M. Moreover, the concentration at half-maximal activity (AC50) under setting [1] is 4.53e-05 M.
As to `C[S+](=O)([O-])NC[C@H]1CC[C@H](Nc2nc3c(s2)CCSc2ccccc2-3)CC1` [NCGC00370875-01], the “CC-v2” value is -3, the Efficacy is listed as -44.692 and half-maximal activity (AC50) was put at 7.31e-05 M. Besides, the concentration at half-maximal activity (AC50) under setting [1] is 7.31e-05 M.
Take `COc1ccc(CC2C(=O)NC(C)C(=O)N(C)C3Cc4ccc(cc4)Oc4cc(ccc4OC4OC(CO)C(O)C(O)C4O)CC(C(=O)NC(C)C(=O)NC(C)C(=O)N2C)N(C)C3=O)cc1` (stereo not shown) [NCGC00384826-01]: the AC50 is, setting by setting: (from Hill fit of the response curve, 50% of maximum activity response, 194 cherry-picked compounds, protocol name not given, read-out: AC50) 6.18e-06 M; (potency in log units (Molar) from Hill fit of the response curve, 194 cherry-picked compounds, protocol name not given, read-out: Log AC50 (converted)) 6.18e-06 M. The “CC-v2” value (curve class v2 (Inglese et al. 2006)) is on record as -2.2. Where the note is “difference between neutral response and maximum compound response”, the Efficacy is reported as -63.548.
`COc1cccc(C)c1C(=O)O[C@@H]1C[C@H](O[C@H]2[C@H](O)C[C@H](O[C@@H]3CCC[C@H]4[C@H]3C=C[C@@H]3CCCC/C=C/[C@H]5C=C(C(=O)O)[C@@H](C)C[C@@]56OC(=O)C(=C6O)OC(=O)[C@@]34C)O[C@@H]2C)O[C@H](C)[C@H]1O` [NCGC00386109-01]: the Efficacy is listed as -37.18 and half-maximal activity (AC50) was put at 1.23e-05 M. Further, the AC50 under setting [1] was 1.23e-05 M.
With `COc1ccc(CCN(C)CCCC(C#N)(c2ccc(OC)c(OC)c2)C(C)C)cc1OC` (stereo not shown) [NCGC00016083, Verapamil, reference compound], the “Identified as active in CPE assay validation set” value is “identified”.
The molecule `C=CC(C)(O)CC[C@@H]1[C@@]2(C)CCCC(C)(C)C2CC[C@@]1(C)O` (stereo partly shown) [NCGC00386171-01] had an Efficacy of -26.101 and an AC50 of 5.8e-05 M. Moreover, the AC50 under setting [1] is 5.8e-05 M.
`Cc1cc(C(=O)Nc2cc(Nc3ccc4c(/C=C/c5ccccn5)[nH]nc4c3)ccc2F)n(C)n1` [NCGC00387023-01]: the Efficacy is -55.32 and the AC50 came out at 3.66e-05 M. The AC50 under setting [1] was 3.66e-05 M.
Turning to `C=C1C(=O)O[C@H]2CC(=C)[C@H]3CC[C@@](C)(O)[C@@H]3CC12` (stereo partly shown) [NCGC00385616-01], the “CC-v2” value was -3, the Efficacy is -31.171 and the activity was half-maximal at 7.31e-05 M (AC50). For the same molecule, the AC50 under setting [1] is 7.31e-05 M.
For `CC(=O)O[C@@]1(C)C[C@@H](O)[C@]2(O)C=CO[C@@H](O[C@@H]3O[C@H](CO)[C@@H](O)[C@H](O)[C@H]3O)[C@@H]21` [NCGC00169032-03], the Curve class is -3, the Efficacy was -81.683, the activity was half-maximal at 1.42e-05 M (AC50) and the Emax was 1.21%. The AC50 (read-out: Log AC50 (converted)) is 1.42e-05 M.
In the case of `CC(=O)OCC1OC(O[C@H]2CC[C@@]3(C)C(CC[C@]4(C)C3CC=C3[C@@H]5CC(C)(C)CC[C@]5(C(=O)O)CC[C@]34C)[C@]2(C)CO)C(O)C(O)C1OC1OC(C)C(O)C(OC2OCC(O)C(O)C2O)C1O` (stereo partly shown) [NCGC00380575-01], the Efficacy was -26.099 and the AC50 is 7.78e-06 M. Moreover, under setting [1], the AC50 was 7.78e-06 M.
Take `CC(=O)CC1CCC(C(C)C(=O)OCC(O)CO)O1` (stereo not shown) [NCGC00381119-01]: the “CC-v2” value is -3, the Efficacy was -53.159 and half-maximal activity (AC50) was put at 2.91e-05 M. Moreover, under setting [1], the AC50 was 2.91e-05 M.
In turn, `O=C1[C@H](CC[C@H](O)c2ccc(F)cc2)[C@@H](c2ccc(O)cc2)N1c1ccc(F)cc1` [NCGC00263575-07] showed an Efficacy of -30.405 and an AC50 of 2.91e-05 M. The AC50 under setting [1] is 2.91e-05 M.
In turn, `CN(C)c1cccc(-c2c3c(=O)n(-c4ccccc4Cl)[nH]c3cc(=O)n2C)c1` [NCGC00378460-08] showed an Efficacy of -22.536 and an AC50 of 2.91e-05 M. The AC50 under setting [1] is 2.91e-05 M.
`Cn1cc(-c2ccncc2)c(-c2ccc(OCc3ccc4ccccc4n3)cc2)n1` [NCGC00346630-05] displayed an Efficacy of -23.654 and an AC50 of 2.59e-05 M. Moreover, the AC50 under setting [1] was 2.59e-05 M.
For the molecule `O=C1Nc2ccc(Cl)cc2[C@@](C#CC2CC2)(C(F)(F)F)O1` [NCGC00159337, efavirenz, reference compound], the “Identified as active in CPE assay validation set” value was “identified”.
On to `CC1=CC(=O)[C@@H](O)[C@@]2(C)C1C[C@H]1OC(=O)[C@H](O)[C@@]3(O)[C@@H](C)[C@@H](O)[C@H](O)C2[C@@]13C` (stereo partly shown) [NCGC00347801-02], for which the “CC-v2” value is -1.2, the Efficacy is listed as -51.479 and half-maximal activity (AC50) was put at 1.43e-05 M. Moreover, the AC50 under setting [1] is 1.43e-05 M.
On to `Cc1cc(OCCC[S+](C)(=O)[O-])cc(C)c1-c1cccc(COc2ccc3c(c2)OCC3CC(=O)O)c1` (stereo not shown) [NCGC00389617-01], for which the “CC-v2” value is recorded as -3, the Efficacy was -41.849 and the AC50 turned out to be 2.31e-05 M. Moreover, the AC50 under setting [1] is 2.31e-05 M.
Consider `CC(C)=CCC/C(C)=C/COCC1OC(n2ccc(=O)[nH]c2=O)C(O)C1O` (stereo not shown) [NCGC00386057-01], for which the Efficacy is on record as -46.076 and the activity was half-maximal at 4.53e-05 M (AC50). Besides, the AC50 under setting [1] is 4.53e-05 M.
Turning to `O=C(c1cn(Cc2cncn2Cc2ccc(Br)cc2)cc1-c1cccc2ccccc12)N1CCOCC1` [NCGC00370772-05], the “CC-v2” value was -2.2, the Efficacy is given as -38.989 and the AC50 was 3.66e-05 M. Under setting [1], the AC50 is 3.66e-05 M.
Regarding `C=C[C@H]1[C@H](O[C@@H]2O[C@H](CO)[C@@H](O)[C@H](O)[C@H]2O)OC=C(C(=O)OC)[C@H]1CCO` [NCGC00384878-01], the “CC-v2” value was -3, the Efficacy was -80.569 and the activity was half-maximal at 2.02e-05 M (AC50). Under setting [1], the AC50 was 2.02e-05 M.
Consider `CC1=CC2/C=C(\C)CCC(O)C3OC(C)(C)OC3CC(=O)OC23C(=O)NC(CC(C)C)C3C1C` (stereo not shown) [NCGC00381131-01], for which the “CC-v2” value is -3, the Efficacy is -69.811 and the AC50 came to 1.42e-05 M. For the same molecule, the half-maximal activity concentration (AC50) under setting [1] was 1.42e-05 M.
For the molecule `C=C1C(=O)O[C@@H]2C(OC(=O)/C(C)=C\C)/C(C)=C\C(=O)/C=C(\C)C[C@H](O)[C@@H]12` (stereo partly shown) [NCGC00381208-01], the “CC-v2” value is reported as -3, the Efficacy is recorded as -35.291 and the AC50 was 5.08e-05 M. For the same molecule, under setting [1], the AC50 is 5.08e-05 M.
